The values below come from patent US6875743B1, “Cell adhesion inhibitors” (Biogen, Inc., priority 1996, dated 2005).

Numbered stars: 1 amine (or outer) side, 2 acyl side, 3 side chain; on linkers, the order of the positions; unused ones are H or OH. Square brackets hold non-standard residues; d marks the D form. Peptide text beside a SMILES is read from it. * marks the point of attachment. ξ: configuration not given here. Hydrocinnamoyl = O=C(CCc1ccccc1)*; Quinaldoyl = O=C(c1ccc2ccccc2n1)*; X1 = O=C(Cc1ccc(N[*:1])cc1)[*:2]; NH(2-Me-phenyl) = Cc1ccccc1N*; NMeL = CN[CH](CC(C)C)C(=O)O; ξTic = O=C(O)C1Cc2ccccc2CN1; PhAc = O=C(Cc1ccccc1)*; Boc = CC(C)(C)OC(=O)*; CO = O=C([*:1])[*:2]; NHPh = c1ccc(N*)cc1; Bn = c1ccc(C*)cc1

B1: Compound 167 (peptide)
peptide: Boc-LDVM-OMe
SMILES: COC(=O)[C@H](CCSC)NC(=O)[C@@H](NC(=O)[C@H](CC(=O)O)NC(=O)[C@H](CC(C)C)NC(=O)OC(C)(C)C)C(C)C
B2: Compound 168 (peptide)
peptide: Quinaldoyl-LDVM-OMe
SMILES: COC(=O)[C@H](CCSC)NC(=O)[C@@H](NC(=O)[C@H](CC(=O)O)NC(=O)[C@H](CC(C)C)NC(=O)c1ccc2ccccc2n1)C(C)C
B3: Compound 186 (peptide)
peptide: Quinaldoyl-LDVM-OH
SMILES: CSCC[C@H](NC(=O)[C@@H](NC(=O)[C@H](CC(=O)O)NC(=O)[C@H](CC(C)C)NC(=O)c1ccc2ccccc2n1)C(C)C)C(=O)O

The target in one test is T1, α4β1 integrin, very late antigen-4 (VLA-4) (UniProt P13612 34-1032; P05556 21-798, limits assumed).
T1 construct: whole, on cells; also called CD49d/CD29
T1 sequence (P13612 34-1032 limits assumed, chain 1 of 2): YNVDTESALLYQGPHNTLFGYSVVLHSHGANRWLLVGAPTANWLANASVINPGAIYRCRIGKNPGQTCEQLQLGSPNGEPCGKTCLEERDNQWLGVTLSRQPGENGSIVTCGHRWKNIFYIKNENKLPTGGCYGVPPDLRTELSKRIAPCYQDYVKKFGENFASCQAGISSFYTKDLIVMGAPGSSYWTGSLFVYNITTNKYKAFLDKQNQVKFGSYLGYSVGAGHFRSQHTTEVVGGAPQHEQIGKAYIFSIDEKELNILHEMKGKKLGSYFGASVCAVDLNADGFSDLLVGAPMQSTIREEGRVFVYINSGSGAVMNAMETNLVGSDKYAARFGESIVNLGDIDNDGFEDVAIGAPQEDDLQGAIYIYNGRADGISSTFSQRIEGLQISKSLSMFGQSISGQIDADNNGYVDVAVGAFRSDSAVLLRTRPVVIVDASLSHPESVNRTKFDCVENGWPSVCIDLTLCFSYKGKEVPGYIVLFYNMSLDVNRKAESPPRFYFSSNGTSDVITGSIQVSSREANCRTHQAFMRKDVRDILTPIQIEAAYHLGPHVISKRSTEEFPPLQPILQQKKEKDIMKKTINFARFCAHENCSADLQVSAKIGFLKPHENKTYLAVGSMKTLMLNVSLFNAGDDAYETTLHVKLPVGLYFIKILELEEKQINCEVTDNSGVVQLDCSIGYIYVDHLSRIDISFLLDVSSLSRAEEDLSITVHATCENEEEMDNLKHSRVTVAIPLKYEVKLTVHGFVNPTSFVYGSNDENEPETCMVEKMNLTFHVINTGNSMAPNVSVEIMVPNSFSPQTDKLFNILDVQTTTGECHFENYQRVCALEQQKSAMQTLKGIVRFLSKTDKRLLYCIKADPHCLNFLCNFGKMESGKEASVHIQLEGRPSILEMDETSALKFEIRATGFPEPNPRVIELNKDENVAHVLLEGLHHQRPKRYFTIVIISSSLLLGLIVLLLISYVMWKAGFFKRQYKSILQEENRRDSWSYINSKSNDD
T1 sequence (P05556 21-798 limits assumed, chain 2 of 2): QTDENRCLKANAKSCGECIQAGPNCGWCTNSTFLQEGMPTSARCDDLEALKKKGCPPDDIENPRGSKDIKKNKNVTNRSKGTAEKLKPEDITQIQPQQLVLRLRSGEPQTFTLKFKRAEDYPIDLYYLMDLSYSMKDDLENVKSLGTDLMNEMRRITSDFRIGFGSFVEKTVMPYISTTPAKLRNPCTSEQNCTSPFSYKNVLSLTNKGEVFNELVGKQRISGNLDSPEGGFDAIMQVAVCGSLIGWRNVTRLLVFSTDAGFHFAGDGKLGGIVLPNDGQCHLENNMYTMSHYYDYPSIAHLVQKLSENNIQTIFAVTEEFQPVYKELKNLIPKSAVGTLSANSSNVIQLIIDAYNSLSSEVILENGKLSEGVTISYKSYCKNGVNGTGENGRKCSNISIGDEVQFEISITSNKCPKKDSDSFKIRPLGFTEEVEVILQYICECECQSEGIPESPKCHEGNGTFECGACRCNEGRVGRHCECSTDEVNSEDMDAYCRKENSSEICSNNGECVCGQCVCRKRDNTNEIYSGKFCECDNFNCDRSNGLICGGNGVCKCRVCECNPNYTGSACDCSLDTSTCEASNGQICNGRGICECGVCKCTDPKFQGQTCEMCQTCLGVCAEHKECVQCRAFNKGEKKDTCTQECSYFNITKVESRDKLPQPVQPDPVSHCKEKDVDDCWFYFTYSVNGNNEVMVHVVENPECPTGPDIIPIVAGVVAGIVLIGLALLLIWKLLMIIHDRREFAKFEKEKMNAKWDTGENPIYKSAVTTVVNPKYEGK
Put plainly: inhibition of Ramos cell adhesion to BSA-CS1.
Settings: not given
How it is done: Following labelling, the cells were washed twice in assay buffer (24 mM TRIS, 137 mM NaCl, 2.7 mM KCl, pH 7.4, containing 0.1% BSA and 2 mM glucose) to remove any cations originating from the culture medium. The cells were then resuspended in assay buffer to 4×10⁶ cells/mL and 2 mM MnCl_2 was added to upregulate VLA4 on the surface of the cells.
Immediately prior to running the assay, we removed the BSA blocking solution from the 96-well plates and washed the wells with 100 μL of assay buffer. We then added to each well 25 μL of test cell adhesion inhibitory compound at 2× the final concentration and 25 μL of the labelled Ramos cells. […] Each concentration of compound was tested in triplicate. The compound and cells are allowed to incubate for 30 minutes at room temperature.
Percent binding is calculated by the formula: […]
Turning to {3‑methoxy‑4‑(N'-phenylurea)phenylacetyl}-MDVP-OH [Compound 2], the IC50 – broadly, the concentration at which inhibition is half-maximal – was under 50 nM.

Turning to B1, the concentration for half-maximal inhibition (IC50) is over 10000 nM.

B2: the IC50 is 50 to 10000 nM.

With {4‑(N'-2-hydroxyphenylurea)phenylacetyl}-MDVP-OH [Compound 146], the IC50 is under 50 nM.

The molecule B3 had an IC50 of over 10000 nM.

In another test the target is T2, VLA4 (Homo sapiens, UniProt P05556+P13612).
T2 construct: endogenous in cells; host or cells: Ramos cells
T2 sequence (P13612 34-1032): as the sequence (P13612 34-1032 limits assumed, chain 1 of 2) above
T2 sequence (P05556 21-798): as the sequence (P05556 21-798 limits assumed, chain 2 of 2) above
Description: Inhibition of VLA4-dependent adhesion to BSA-CS1. The format is cell-based. The settings on record: binding of BCECF-labelled Ramos cells to BSA-CS1 coated wells, 2 mM MnCl2; read-out: IC50.
`Cc1ccccc1NC(=O)Nc1ccc(CC(=O)N[C@@H](CC(C)C)C(=O)N2CCC[C@H]2C(=O)N[C@H](C(=O)N[C@@H](CC(=O)O)C(=O)O)C(C)C)cc1` [Compound 341] ({NH(2-Me-phenyl)-CO}-[X1]LPVD-OH): the IC50 is over 10000 nM.

`CSCC[C@H](NC(=O)Cc1ccc(NC(=O)Nc2ccccc2C)cc1)C(=O)N[C@@H](CC(=O)O)C(=O)N[C@H](CC(C)C)C(N)=O` [Compound 222]: the IC50 is under 50 nM.

As for `Cc1ccccc1NC(=O)Nc1ccc(CC(=O)N[C@H](CC(C)C)C(=O)N[C@@H](CC(=O)O)C(=O)N[C@H](CCC(=O)O)C(N)=O)cc1` [Compound 294], the half-inhibitory concentration (IC50) was under 50 nM.

Take `CNC(=O)[C@@H](CC(C)C)NC(=O)[C@H](CC(=O)O)NC(=O)[C@@H]1CCCN1C(=O)Cc1ccc(NC(=O)Nc2ccccc2C)cc1` [Compound 409]: the IC50 was 50 to 10000 nM.

For `CNC(=O)[C@@H](NC(=O)[C@H](CC(=O)O)NC(=O)[C@H](CC(C)C)NC(=O)Cc1ccc(NC(=O)Nc2ccccc2)cc1)C(C)C` [Compound 204], the IC50 was in the range of 50 to 10000 nM.

`CC(C)C[C@H](NC(=O)Cc1cccs1)C(=O)N[C@@H](CC(=O)O)C(=O)N[C@H](C(=O)O)C(C)C` [Compound 404]: the IC50 is over 10000 nM.

For the molecule `CC(C)CC(NC(=O)CCCCc1ccccc1)C(=O)NC(CC(=O)O)C(=O)NCC1CCCCC1` (stereo not shown) [Compound 26], the IC50 is over 10000 nM.

Turning to `CC(C)C[C@H](NC(=O)CCCCc1ccccc1)C(=O)N[C@@H](CC(=O)O)C(=O)N[C@H](C(=O)O)C(C)C` [Compound 98], the IC50 is over 10000 nM.

Turning to `CCC(C)C(NC(=O)C(CC(=O)O)NC(=O)C(CC(C)C)NC(=O)Cc1ccccc1)C(=O)OC` (stereo not drawn) [Compound 54] (PhAc-Leu-Asp-Ile-OMe; configuration not given here), the IC50 was over 10000 nM.

With `CC(C)C[C@H](NC(=O)Cc1ccc(NC(=O)Nc2ccccc2)cc1)C(=O)N[C@@H](CC(=O)O)C(=O)N[C@@H](C(=O)N1CCC[C@H]1C(N)=O)C(C)C` [Compound 211] ({NHPh-CO}-[X1]LD[dV]P-NH2), the IC50 lay in the range of 50 to 10000 nM.

Regarding `Cc1ccccc1NC(=O)Nc1ccc(CC(=O)N[C@H](C(=O)N[C@@H](CC(=O)O)C(=O)N[C@H](CC(N)=O)C(N)=O)[C@@H](C)O)cc1` [Compound 259], the IC50 was under 50 nM.

For `Cc1ccccc1NC(=O)Nc1ccc(CC(=O)N[C@@H](CCC(N)=O)C(=O)N[C@@H](CC(=O)O)C(=O)N[C@@H](CC(=O)O)C(N)=O)cc1` [Compound 297], the IC50 was under 50 nM.

Regarding `COC(=O)C1CCCN1C(=O)C(NC(=O)C(CC(=O)O)NC(=O)C(CC(C)C)NC(=O)CCc1ccc(O)cc1)C(C)C` (stereo not shown) [Compound 39], the IC50 is over 10000 nM.

Regarding `CC(C)C[C@@H](NC(=O)Cc1ccc(NC(=O)Nc2ccccc2)cc1)C(=O)N[C@H](CC(=O)O)C(=O)N[C@@H](C(=O)N1CCC[C@@H]1C(N)=O)C(C)C` [Compound 212] ({NHPh-CO}-[X1][dL][dD][dV][dP]-NH2), the IC50 fell in the range of 50 to 10000 nM.

For `CSCC[C@H](NC(=O)Cc1ccc(NC(=O)Nc2ccccc2C)cc1)C(=O)N[C@@H](CCC(=O)O)C(=O)N[C@@H](CC(=O)O)C(N)=O` [Compound 308], the IC50 is under 50 nM.

Regarding `Cc1ccccc1NC(=O)Nc1ccc(CC(=O)N[C@@H](CCC(=O)O)C(=O)N[C@@H](CC(=O)O)C(=O)N[C@H](CO)C(N)=O)cc1` [Compound 273], the IC50 is under 50 nM.

As to `COC(=O)C[C@H](NC(=O)[C@H](CC(C)C)N(C)CCCc1ccccc1)C(=O)N[C@H](C(=O)OC)C(C)C` [Compound 112], the IC50 was over 10000 nM.

On to `CC(C)C[C@H](NC(=O)Cc1ccc(NC(=O)Nc2ccccc2)cc1)C(=O)N[C@@H](CC(=O)O)C(=O)N[C@H](C(=O)O)C(C)C` [Compound 203], for which the half-inhibitory concentration (IC50) is under 50 nM.

As to `Cc1ccccc1NC(=O)Nc1ccc(CC(=O)N[C@@H](CCC(=O)O)C(=O)N[C@@H](CC(=O)O)C(=O)N[C@@H](CCC(=O)O)C(N)=O)cc1` [Compound 267], the IC50 was under 50 nM.

With `CNC(=O)C(NC(=O)C(CC(=O)O)NC(=O)C(CC(C)C)N(C)C(=O)CCc1ccccc1)C(C)C` (stereo not drawn) [Compound 184] (Hydrocinnamoyl-[NMeL]-Asp-Val-NHMe; configuration not given here), the IC50 was over 10000 nM.

Take `CSCC[C@H](NC(=O)[C@H](CC(=O)O)NC(=O)[C@H](CCC(N)=O)NC(=O)Cc1ccc(NC(=O)Nc2ccccc2C)cc1)C(N)=O` [Compound 303]: the IC50 is under 50 nM.

Regarding `CC(C)C[C@H](NC(=O)c1ccc2c(c1)CCO2)C(=O)N[C@@H](CC(=O)O)C(=O)N[C@H](C(=O)O)C(C)C` [Compound 387], the IC50 is over 10000 nM.

Take `CC(C)C[C@H](NC(=O)[C@H](CC(=O)O)NC(=O)[C@H](CC(C)C)NC(=O)C1Cc2ccccc2CN1)C(=O)O` (stereo partly shown) [Compound 90] (H-[ξTic]LDL-OH): the IC50 was over 10000 nM.

For the molecule `Cc1c(C(=O)N[C@@H](CC(C)C)C(=O)N[C@@H](CC(=O)O)C(=O)N[C@H](C(=O)O)C(C)C)cnn1-c1ccccc1` [Compound 369], the IC50 is over 10000 nM.

With `Cc1ccccc1NC(=O)Nc1ccc(CC(=O)N[C@@H](CCC(N)=O)C(=O)N[C@@H](CC(=O)O)C(=O)N[C@@H](Cc2c[nH]c3ccccc23)C(N)=O)cc1` [Compound 306], the IC50 is under 50 nM.

With `CCn1cc(C(=O)N[C@@H](CC(C)C)C(=O)N[C@@H](CC(=O)O)C(=O)N[C@H](C(=O)O)C(C)C)c(=O)c2ccc(C)nc21` [Compound 403], the IC50 is over 10000 nM.

As to `Cc1ccccc1NC(=O)Nc1ccc(CC(=O)N[C@H](CC(C)C)C(=O)N[C@@H](CC(=O)O)C(=O)N[C@H](CC(C)C)C(N)=O)cc1` [Compound 289], the IC50 was under 50 nM.

As to `COC(=O)[C@@H](NC(=O)[C@H](CC(=O)O)NC(=O)[C@H](CC(C)C)NC(=O)Cc1ccccc1)[C@@H](C)OCc1ccccc1` [Compound 192] (PhAc-Leu-Asp-Thr(Bn)-OMe), the IC50 lay in the range of 50 to 10000 nM.

As to `Cc1ccccc1NC(=O)Nc1ccc(CC(=O)N[C@@H](CCC(N)=O)C(=O)N[C@@H](CC(=O)O)C(=O)N[C@H](CC(C)C)C(N)=O)cc1` [Compound 300], the IC50 was under 50 nM.

With `Cc1ccccc1NC(=O)Nc1ccc(CC(=O)N[C@H](C(=O)N[C@@H](CC(=O)O)C(=O)N[C@H](C(N)=O)[C@@H](C)O)[C@@H](C)O)cc1` [Compound 257], the IC50 is under 50 nM.

With `CSCC[C@H](NC(=O)Cc1ccc(NC(=O)Nc2ccccc2C)cc1)C(=O)N[C@@H](CC(=O)O)C(=O)N[C@H](CO)C(N)=O` [Compound 229], the IC50 was under 50 nM.

Regarding `Cc1ccccc1NC(=O)Nc1ccc(CC(=O)N2CCC[C@H]2C(=O)N[C@@H](CC(=O)O)C(=O)N[C@H](CCC(=O)O)C(N)=O)cc1` [Compound 249], the IC50 was under 50 nM.

Regarding `Cc1ccccc1NC(=O)Nc1ccc(CC(=O)N[C@@H](CCC(=O)O)C(=O)N[C@@H](CC(=O)O)C(=O)N[C@H](C(N)=O)[C@@H](C)O)cc1` [Compound 268], the IC50 was under 50 nM.

With `CSCC[C@H](NC(=O)Cc1ccc(NC(=O)Nc2ccccc2C)cc1)C(=O)N[C@@H](CC(=O)O)C(=O)N[C@@H](Cc1c[nH]c2ccccc12)C(N)=O` [Compound 228], the IC50 is under 50 nM.

Turning to `CC(C)C[C@H](NC(=O)Cc1ccc(NC(=O)Nc2ccccc2)cc1)C(=O)N[C@H](CC(=O)O)C(=O)N[C@H](C(=O)N1CCC[C@H]1C(N)=O)C(C)C` [Compound 210] ({NHPh-CO}-[X1]L[dD]VP-NH2), the IC50 is 50 to 10000 nM.

For the molecule `CSCC[C@H](NC(=O)Cc1ccc(NC(=O)Nc2ccccc2C)cc1)C(=O)N[C@@H](CC(=O)O)C(=O)N[C@@H](CC(=O)O)C(N)=O` [Compound 219], the IC50 is under 50 nM.

Consider `CSCC[C@H](NC(=O)[C@H](CC(=O)O)NC(=O)[C@H](CCC(=O)O)NC(=O)Cc1ccc(NC(=O)Nc2ccccc2C)cc1)C(N)=O` [Compound 269], for which the IC50 was under 50 nM.

For `Cc1ccccc1NC(=O)Nc1ccc(CC(=O)N[C@@H](CCC(=O)O)C(=O)N[C@@H](CC(=O)O)C(=O)N[C@@H](Cc2c[nH]c3ccccc23)C(N)=O)cc1` [Compound 272], the IC50 is under 50 nM.
